# According to ChEMBL document CHEMBL6153110, “Peptide Double-Stapling and Arginine N-Glycosylation Triggered the Development of Therapeutic Antimicrobial Peptides Capable of Killing Drug-Resistant Bacteria in Mice” (J Med Chem, 2025):
# Calls of active or inactive are those of the source. The calls are words filed in the database; no cut-off is given here. Starred links: 1 amine or outer side, 2 acyl side, 3 side chain; linkers in the order of their positions; H or OH if unused. Non-standard residues stand in square brackets, D forms with d. Residues, ends and D or L forms follow the SMILES beside them. X2 = CC(=O)N[C@@H]1[C@@H](O)[C@H](O)[C@@H](CO)O[C@H]1NC(=N)NCCC[C@H](N[*:1])C(=O)[*:2]
# Legend:
# Staphylococcus aureus [1] = experiment: Antimicrobial activity against methicillin-resistant Staphylococcus aureus ATCC 43300 assessed as growth inhibition measured after 8 hrs incubation by standard broth dilution assay; assay type: functional
# Staphylococcus aureus [2] = experiment: In vivo antibacterial activity against methicillin-resistant Staphylococcus aureus ATCC 43300 infected locally in full thickness skin wound mouse model assessed as clean and less exudate at 1 mg/kg treated with absorbable gelatin sponge measured on early healing stage; assay type: functional, organism-based; settings: route id
# Pseudomonas aeruginosa = experiment: Antimicrobial activity against Pseudomonas aeruginosa ATCC 27853 assessed as growth inhibition measured after 8 hrs incubation by standard broth dilution assay; assay type: functional
# Klebsiella pneumoniae [3] = experiment: In vivo antibacterial activity against Klebsiella pneumoniae ATCC 13883 induced bacterial pneumonia mouse model assessed as reduction in bacterial infection induced weight loss at 4 mg/kg, injected into trachea after 24 hrs of infection measured after 3 to 7 days; assay type: functional, organism-based
# Cell membrane [4] = experiment: Induction of cell membrane damage in Klebsiella pneumoniae ATCC 13883 assessed as increase in red fluorescence at MIC measured after 1 hr incubation by PI based confocal microscopy; assay type: subcellular
# Klebsiella pneumoniae [5] = experiment: In vivo antibacterial activity against Klebsiella pneumoniae ATCC 13883 induced bacterial pneumonia mouse model assessed as reduction in bacterial infection induced weight loss at 1 mg/kg, injected into trachea after 24 hrs of infection measured after 3 to 7 days; assay type: functional, organism-based
# Cell membrane [6] = experiment: Induction of cell membrane damage in Klebsiella pneumoniae ATCC 13883 assessed as corrugation, blebbing, breakage, and fragmentation at MIC measured after 1 hr incubation by Scanning electron microscopy; assay type: subcellular
# [7] = Toxicity in mouse assessed as fasciculus necrosis at 40 mg/kg, sc by H and E staining based assay; assay type: organism-based; settings: in vivo
# Staphylococcus aureus [8] = experiment: In vivo antibacterial activity against methicillin-resistant Staphylococcus aureus ATCC 43300 infected locally in full thickness skin wound mouse model assessed as reduction in bacterial load in skin wound at 1 mg/kg treated with absorbable gelatin sponge measured after 7 days; assay type: functional, organism-based; settings: time 7.0 day
# [9] = Toxicity in mouse skin assessed as abscesses and visual lesions at 40 mg/kg, sc by histological analysis; assay type: organism-based; settings: in vivo
# Cell membrane [10] = experiment: Binding affinity to methicillin-resistant Staphylococcus aureus ATCC 43300 cell membrane treated with FITC labelled peptides at MIC measured after 1.5 hr by CLSM imaging analysis; assay type: subcellular
# Cell membrane [11] = experiment: Induction of cell membrane damage in Klebsiella pneumoniae ATCC 13883 assessed as significant plasma membrane rupture, cytosolic membrane and outer membrane separation, and cytoplasmic leakage at MIC measured after 1 hr incubation by Transmission electron microscopy; assay type: subcellular
# Staphylococcus aureus [12] = experiment: In vivo antibacterial activity against methicillin-resistant Staphylococcus aureus ATCC 43300 infected locally in full thickness skin wound mouse model assessed as reduction in bacterial load in skin wound at 4 mg/kg treated with absorbable gelatin sponge measured after 3 days; assay type: functional, organism-based; settings: time 3.0 day
# Staphylococcus aureus [13] = experiment: Antibiofilm activity in methicillin-resistant Staphylococcus aureus ATCC 43300 assessed as reduction in biofilm formation at 37.2 ug/ml measured after 24 hrs by crystal violet staining based assay relative to control; assay type: functional; design: scale not given: the % may be the effect or the level left; settings: dose 37.2 µg/ml
# Klebsiella pneumoniae [14] = experiment: Antibiofilm activity in Klebsiella pneumoniae ATCC 13883 assessed as reduction in biofilm formation at 150 ug/ml measured after 24 hrs by crystal violet staining based assay relative to control; assay type: functional; design: scale not given: the % may be the effect or the level left; settings: dose 150 µg/ml
# Cell membrane [15] = experiment: Induction of cell membrane damage in methicillin-resistant Staphylococcus aureus ATCC 43300 assessed as increase in red fluorescence at MIC measured after 1 hr incubation by PI based assay; assay type: subcellular
# Cell membrane [16] = experiment: Binding affinity to Klebsiella pneumoniae ATCC 13883 cell membrane treated with FITC labelled peptides at MIC measured after 1.5 hr by CLSM imaging analysis; assay type: subcellular
# Staphylococcus aureus [17] = experiment: In vivo antibacterial activity against methicillin-resistant Staphylococcus aureus ATCC 43300 infected locally in full thickness skin wound mouse model assessed as reduction in bacterial load in skin wound at 4 mg/kg treated with absorbable gelatin sponge measured after 7 days; assay type: functional, organism-based; settings: time 7.0 day
# Staphylococcus aureus [18] = experiment: In vivo antibacterial activity against methicillin-resistant Staphylococcus aureus ATCC 43300 infected locally in full thickness skin wound mouse model assessed as reduction in bacterial load in skin wound at 1 mg/kg treated with absorbable gelatin sponge measured after 3 days; assay type: functional, organism-based; settings: time 3.0 day
# Cell membrane [19] = experiment: Induction of cell membrane damage in methicillin-resistant Staphylococcus aureus ATCC 43300 assessed as corrugation, blebbing, breakage, and fragmentation at MIC measured after 1 hr incubation by Scanning electron microscopy; assay type: subcellular
# Streptococcus pneumoniae = experiment: Antimicrobial activity against Streptococcus pneumoniae ATCC 49619 assessed as growth inhibition measured after 8 hrs incubation by standard broth dilution assay; assay type: functional
# Cell membrane [20] = experiment: Induction of cell membrane damage in methicillin-resistant Staphylococcus aureus ATCC 43300 assessed as significant plasma membrane rupture, […], and cytoplasmic leakage at MIC measured after 1 hr incubation by Transmission electron microscopy; assay type: subcellular
# Cell membrane [21] = experiment: Induction of cell membrane damage in methicillin-resistant Staphylococcus aureus ATCC 43300 assessed as increase in green fluorescence at MIC measured after 1 hr incubation by SYTO9 confocal microscopy; assay type: subcellular
# Klebsiella pneumoniae [22] = experiment: Antimicrobial activity against Klebsiella pneumoniae ATCC 13883 assessed as growth inhibition measured after 8 hrs incubation by standard broth dilution assay; assay type: functional
# Staphylococcus aureus [23] = experiment: In vivo antibacterial activity against methicillin-resistant Staphylococcus aureus ATCC 43300 infected locally in full thickness skin wound mouse model assessed as reduced skin damage by promoting wound healing at 4 mg/kg treated with absorbable gelatin sponge measured on early healing stage; assay type: functional, organism-based; settings: route id
# [24] = Toxicity in mouse assessed as intramuscular injury at 40 mg/kg, sc by H and E staining based assay; assay type: organism-based; settings: in vivo
# Cell membrane [25] = experiment: Induction of cell membrane damage in Klebsiella pneumoniae ATCC 13883 assessed as increase in green fluorescence at MIC measured after 1 hr incubation by SYTO9 confocal microscopy; assay type: subcellular
# [26] = Hemolytic activity in BALB/c mouse red blood cells assessed as hemolysis incubated for 1 hrs; assay type: toxicity, cell-based, Erythrocyte; settings: read-out: HD50
compound,measurement,setting,value
CC(=O)N[C@@H](CC(C)C)C(=O)N[C@@H](CCCCN)C(=O)N[C@@H](CCCNC(=N)N)C(=O)N[C@H](C(=O)N[C@@H](Cc1c[nH]c2ccccc12)C(=O)N[C@@H](CCCCN)C(=O)N[C@@H](CCCNC(=N)N)C(=O)N[C@H](C(=O)N[C@@H](Cc1ccccc1)C(=O)N[C@@H](CCCCN)C(=O)N[C@@H](CC(C)C)C(=O)N[C@@H](CC(C)C)C(=O)N[C@@H](CCCCN)C(=O)N[C@@H](CCCNC(=N)N)C(=O)N[C@@H](Cc1ccc(O)cc1)C(=O)N[C@@H](Cc1c[nH]c2ccccc12)C(=O)N[C@@H](CCCNC(=N)N)C(=O)N[C@@H](CCC(N)=O)C(=O)N[C@@H](CC(C)C)C(=O)N[C@@H](CCCCN)C(=O)N[C@@H](CCCCN)C(=O)N1CCC[C@H]1C(=O)N[C@H](C(=O)N[C@@H](CCCNC(=N)N)C(N)=O)C(C)C)C(C)C)C(C)C (Ac-LKRVWKRVFKLLKRYWRQLKKPVR-NH2),MIC,Staphylococcus aureus [1],9.7 µg/mL
same,Activity,Staphylococcus aureus [2],Active; Model Group Showed Yellowish Compared With The Wounds Treated With Compound
same,MIC,Pseudomonas aeruginosa,4.9 µg/mL
same,Activity,Klebsiella pneumoniae [3],Active
same,Activity,Cell membrane [4],Active
same,Activity,Klebsiella pneumoniae [5],Active
same,Activity,Cell membrane [6],inactive
same,Activity,[7],Toxic
same,Activity,Staphylococcus aureus [8],Active
same,Activity,[9],Toxic
same,Activity,Cell membrane [10],Active
same,Activity,Cell membrane [11],Active
same,Activity,Staphylococcus aureus [12],Active
same,Activity,Staphylococcus aureus [13],77.25%
same,Activity,Klebsiella pneumoniae [14],86.42%
same,Activity,Cell membrane [15],Active
same,Activity,Cell membrane [16],Active
same,Activity,Staphylococcus aureus [17],Active
same,Activity,Staphylococcus aureus [18],Active
same,Activity,Cell membrane [19],inactive
same,MIC,Streptococcus pneumoniae,4.7 µg/mL
same,Activity,Cell membrane [20],Active
same,Activity,Cell membrane [21],Active
same,MIC,Klebsiella pneumoniae [22],38 µg/mL
same,Activity,Staphylococcus aureus [23],Active
same,Activity,[24],Toxic
same,Activity,Cell membrane [25],Active
CC(=O)N[C@@H]1[C@@H](O)[C@H](O)[C@@H](CO)O[C@H]1NC(=N)NCCC[C@H](NC(=O)[C@@H](NC(=O)[C@@H]1CCCN1C(=O)[C@H](CCCCN)NC(=O)[C@H](CCCCN)NC(=O)[C@H](CC(C)C)NC(=O)[C@H](CCC(N)=O)NC(=O)[C@H](CCCNC(=N)N)NC(=O)[C@H](Cc1c[nH]c2ccccc12)NC(=O)[C@H](Cc1ccc(O)cc1)NC(=O)[C@H](CCCNC(=N)N)NC(=O)[C@H](CCCCN)NC(=O)[C@H](CC(C)C)NC(=O)[C@H](CC(C)C)NC(=O)[C@H](CCCCN)NC(=O)[C@H](Cc1ccccc1)NC(=O)[C@@H](NC(=O)[C@H](CCCNC(=N)N)NC(=O)[C@H](CCCCN)NC(=O)[C@H](Cc1c[nH]c2ccccc12)NC(=O)[C@@H](NC(=O)[C@H](CCCNC(=N)N)NC(=O)[C@H](CCCCN)NC(=O)[C@H](CC(C)C)NC(C)=O)C(C)C)C(C)C)C(C)C)C(N)=O (Ac-LKRVWKRVFKLLKRYWRQLKKPV[X2]-NH2),MIC,Staphylococcus aureus [1],4.9 µg/mL
same,MIC,Pseudomonas aeruginosa,5 µg/mL
same,HC50 at 1 h,[26],35.8 µg/mL
same,MIC,Streptococcus pneumoniae,4.7 µg/mL
same,MIC,Klebsiella pneumoniae [22],38 µg/mL
CC(=O)N[C@@H]1[C@@H](O)[C@H](O)[C@@H](CO)O[C@H]1NC(=N)NCCC[C@H](NC(=O)[C@H](CCCCN)NC(=O)[C@H](CC(C)C)NC(C)=O)C(=O)N[C@H](C(=O)N[C@@H](Cc1c[nH]c2ccccc12)C(=O)N[C@@H](CCCCN)C(=O)N[C@@H](CCCNC(=N)N)C(=O)N[C@H](C(=O)N[C@@H](Cc1ccccc1)C(=O)N[C@@H](CCCCN)C(=O)N[C@@H](CC(C)C)C(=O)N[C@@H](CC(C)C)C(=O)N[C@@H](CCCCN)C(=O)N[C@@H](CCCNC(=N)N)C(=O)N[C@@H](Cc1ccc(O)cc1)C(=O)N[C@@H](Cc1c[nH]c2ccccc12)C(=O)N[C@@H](CCCNC(=N)N)C(=O)N[C@@H](CCC(N)=O)C(=O)N[C@@H](CC(C)C)C(=O)N[C@@H](CCCCN)C(=O)N[C@@H](CCCCN)C(=O)N1CCC[C@H]1C(=O)N[C@H](C(=O)N[C@@H](CCCNC(=N)N)C(N)=O)C(C)C)C(C)C)C(C)C (Ac-LK[X2]VWKRVFKLLKRYWRQLKKPVR-NH2),MIC,Staphylococcus aureus [1],2.5 µg/mL
same,MIC,Pseudomonas aeruginosa,5 µg/mL
same,HC50 at 1 h,[26],45.2 µg/mL
same,MIC,Streptococcus pneumoniae,9.9 µg/mL
same,MIC,Klebsiella pneumoniae [22],38 µg/mL
